Literature values in US11376213B2, “Topical pharmaceutical formulation” (Futura Medical Developments Limited, priority 2016, dated 2022).
Counter-ions that a name gives are not always drawn. Values belong to the compound of their own block, whether it stands above or below them.

What was measured:
[1] = not given; remark: listed apart in the source
[2] = factor by which greater than piroxicam

aqueous solubility: extremely low
SMILES: CC(C)Cc1ccc(C(C)C(=O)O)cc1 (centres unmarked) [Ibuprofen, isobutylphenylpropionic acid]

saturated solubility in polyethylene glycol ([1]; polyethylene glycol): 11.18 % w/w
saturated solubility in propylene glycol [1]: 1.16 % w/w
SMILES: O=C(O)Cc1ccccc1Nc1c(Cl)cccc1Cl [diclofenac acid]

efficacy index (ratio of skin penetration to potency) relative to piroxicam [2]: ~10^3
SMILES: O=C(O)Cc1ccccc1Nc1c(Cl)cccc1Cl [diclofenac]

saturated solubility in propylene glycol [1]: approximately 50 % w/w
SMILES: O=C(O)Cc1ccccc1Nc1c(Cl)cccc1Cl [sodium salt of diclofenac acid, diclofenac sodium]
